{"source": "patent US11129861B2", "about": "“Methods for treating inflammatory diseases” (OKCHUNDANG CO., LTD., priority 2017, dated 2021)", "key": {"NH4OH exposured mice [1]": {"test_system": "NH4OH exposured mice", "test": "Antitussive assay: NH4OH-induced coughing responses", "type": "in vivo", "conditions": "50 mg/kg orally, 11 days; compared with NH4OH control mice", "description": "NH4OH treated mice: 34.17±1.32 g, ranged in 31.0-37.3 g), as follows. SKOG were suspended in distilled water as 40, 20 and 10 mg/ml concentration, and orally administered in a volume of 10 ml/kg (as equivalence to 400, 200 and 100 mg/kg), once a day for 11 days before NH4OH exposure. In addition, AR and KOG were also suspended in distilled water as 40 mg/ml concentration, and orally administered in a volume of 10 ml/kg (as equivalence to 400, 200 and 100 mg/kg), once a day for 11 days before NH4OH exposure. TB was also dissolved in distilled water as 5 mg/ml concentrations, and also orally administered in a volume of 10 ml/kg (as equivalence to 50 mg/kg), once a day for 11 days before NH4OH exposure. In intact vehicle and NH4OH control mice, distilled water 10 ml/kg was orally administered, instead of AR, KOG, SKOG or TB to provide same restrain stresses, in the present experiment. Coughing was induced by single inhalation of 25% NH4OH (Sigma-Aldrich, St. […] Individual intact vehicle control mouse was exposured to 0.3 ml of saline contained 1,000 ml glass Erlenmeyer flask for 45 sec, instead of NH4OH, in this experiment. The criteria to define cough in mice is that opening the mouth accompanying sound of coughing, contraction of thoracic and abdomen muscles, and a jerking of the front body."}, "[2]": {"test": "Body weight measurements, antitussive assay", "type": "in vivo, mice", "conditions": "50 mg/kg orally", "description": "One-hundred thirty two 6-week male SPF/VAF CrljOri:CD1 [ICR] mice (OrientBio, Seungnam, Korea; body weight ranged in 29-32 g upon receipt) were prepared, and eight groups of 10 mice each were selected based on the body weights at 7 days after acclimatization based on the body weights (intact control: 34.30±1.74 g, ranged in 31.8-37.0 g; NH4OH treated mice: 34.17±1.32 g, ranged in 31.0-37.3 g), as follows.\nSKOG were suspended in distilled water as 40, 20 and 10 mg/ml concentration, and orally administered in a volume of 10 ml/kg (as equivalence to 400, 200 and 100 mg/kg), once a day for 11 days before NH4OH exposure. In addition, AR and KOG were also suspended in distilled water as 40 mg/ml concentration, and orally administered in a volume of 10 ml/kg (as equivalence to 400, 200 and 100 mg/kg), once a day for 11 days before NH4OH exposure. TB was also dissolved in distilled water as 5 mg/ml concentrations, and also orally administered in a volume of 10 ml/kg (as equivalence to 50 mg/kg), once a day for 11 days before NH4OH exposure. In intact vehicle and NH4OH control mice, distilled water 10 ml/kg was orally administered, instead of AR, KOG, SKOG or TB to provide same restrain stresses, in the present experiment.\nChanges of body weight were measured at once a day from 1 day before initial to end of last 11th oral administration of AR, KOG, SKOG or TB using an automatic laboratory animal weighing electronic balance (Precisa Instrument, Dietikon, Switzland). Animals were overnight fasted (about 18 hours, water was not restricted) before initial test substance administration and sacrifice to reduced individual differences from feeding, and also to reduce the individual body weight differences at start of experiment, the body weight gains during 11 days of oral administration of AR, KOG, SKOG or TB were calculated as follow Equation [1], in the current experiment. Body weight gains during 11 days of oral administration of test substances[B−A]=Body weights at last administration[B]−Body weights at first administration[A] Equation [1]"}, "[3]": {"test_system": "xylene topically applied mice", "test": "Anti-inflammatory assay: ear histopathology", "type": "in vivo", "conditions": "50 mg/kg orally, 11 days; xylene topically applied mice", "quoted_text": "AR, KOG and SKOG were orally administered as same as antitussive and expectorant assays, once a day for 11 days before xylene topical applications. In addition, DEXA-water soluble granules were dissolved indistilled water as 1.5 mg/ml concentrations (0.1 mg/ml based on DEXA itself), and also orally administered in a volume of 10 ml/kg (as equivalence to 1 mg/kg based on DEXA itself), once a day for 11 days before xylene topical applications. In intact vehicle and xylene control mice, distilled water 10 ml/kg was orally administered, instead of AR, KOG, SKOG or DEXA to provide same restrain stresses, in the present experiment.\nAcute inflammations were induced by single topical application of 0.03 ml of xylene (Duksan Pure Chemical Co. Ltd., Ansan, Korea) to the anterior surface of the right ear at 1 hour after last 11th test substance administration, as described previously with some modifications. Equal volume of saline was topically applied in intact vehicle mouse ears, instead of xylene, in our experiment.\nAfter ear weight measurement, individual ear samples were fixed in 10% NBF, and crossly trimmed. Then embedded in paraffin, sectioned (3˜4 μm) and stained with Hematoxylin and eosin (H&E) for general histopathology or toluidine blue for mast cells, and after that the histopathological profiles of each sample were observed under light microscope. To more detail changes, mean total, epidermis and dermis thicknesses of the ear anterior surface, numbers of infiltrated inflammatory cells and mast cells on the dermis of ear (cells/mm^2), collagen occupied region percentages on the dermis (%/mm2) were analyzed using a computer assisted image analysis program, according to previously established methods, respectively. The histopathologist was blinds to group distribution when this analysis was made, and at least five repeated measurements in same histological specimens prepared were considered to calculate each mean histomorphometrical value, whenever possible, in this histopathological evaluation."}, "NH4OH exposured mice [4]": {"test_system": "NH4OH exposured mice", "test": "Antitussive assay: trachea and lung histopathology", "type": "in vivo", "conditions": "50 mg/kg orally, 11 days", "description": "SKOG were suspended in distilled water as 40, 20 and 10 mg/ml concentration, and orally administered in a volume of 10 ml/kg (as equivalence to 400, 200 and 100 mg/kg), once a day for 11 days before NH4OH exposure. In addition, AR and KOG were also suspended in distilled water as 40 mg/ml concentration, and orally administered in a volume of 10 ml/kg (as equivalence to 400, 200 and 100 mg/kg), once a day for 11 days before NH4OH exposure. TB was also dissolved in distilled water as 5 mg/ml concentrations, and also orally administered in a volume of 10 ml/kg (as equivalence to 50 mg/kg), once a day for 11 days before NH4OH exposure. In intact vehicle and NH4OH control mice, distilled water 10 ml/kg was orally administered, instead of AR, KOG, SKOG or TB to provide same restrain stresses, in the present experiment. After video image acquirement, some parts of individual lung (left lateral lobes) and trachea (3 mm from thyroid cartilages) were sampled and fixed in 10% neutral buffered formalin (NBF), and crossly trimmed. Then embedded in paraffin, sectioned (3˜4 μm) and stained with Hematoxylin and eosin (H&E) for general histopathology or toluidine blue for mast cells, and after that the histopathological profiles of each sample were observed under light microscope (Model Eclipse 80i, Nikon, Tokyo, Japan). […] The histopathologist was blinds to group distribution when this analysis was made, and at least five repeated measurements in same histological specimens prepared were considered to calculate each mean histomorphometrical value, whenever possible, in this histopathological evaluation (FIG. 4)."}, "[5]": {"conditions": "compared with NH4OH control mice"}}, "note": "Marks after values point to notes of the source that are not given here.", "data": [{"compound": "Cn1cnc2c1c(=O)[nH]c(=O)n2C", "note": "[TB, theobromine]", "values": [{"measurement": "Mean numbers of coughing responses during 6 min after 45 sec exposure of NH4OH, change", "setting": "NH4OH exposured mice [1]", "result": "−59.04", "unit": "%"}, {"measurement": "Body weight gains (g) [B − A]", "setting": "[2]; 11 days, NH4OH exposured mice", "result": "1.71 ± 0.97", "unit": "g"}, {"measurement": "Body weights (g) at test material administration First [A]", "setting": "[2]; 11 days, NH4OH exposured mice", "result": "29.23 ± 1.49", "unit": "g"}, {"measurement": "Body weights (g) at test material administration Last [B]", "setting": "[2]; 11 days, NH4OH exposured mice", "result": "30.94 ± 1.77", "unit": "g"}, {"measurement": "body weight gains during 11 days, change", "setting": "[2]; [5]", "result": 2.40, "unit": "%"}, {"measurement": "Cells Inflammatory (ear dermis)", "setting": "[3]", "result": "10.10 ± 10.54^fh Numbers/mm^2"}, {"measurement": "Cells Mast (ear dermis)", "setting": "[3]", "result": "61.30 ± 12.65^c Numbers/mm^2"}, {"measurement": "Collagen fiber", "setting": "[3]", "result": "77.43 ± 12.79^h %/mm^2 of dermis"}, {"measurement": "Thickness Dermis (ear)", "setting": "[3]", "result": "52.33 ± 13.72^h μm"}, {"measurement": "Thickness Epidermis (ear)", "setting": "[3]", "result": "8.50 ± 1.65", "unit": "μm"}, {"measurement": "Thickness Total (ear)", "setting": "[3]", "result": "99.55 ± 9.57^h μm"}, {"measurement": "Cells Inflammatory (trachea)", "setting": "NH4OH exposured mice [4]; NH4OH exposured mice", "result": "167.40 ± 40.26^hi Numbers/mm^2"}, {"measurement": "Cells Mast (trachea)", "setting": "NH4OH exposured mice [4]; NH4OH exposured mice", "result": "14.30 ± 4.60^hi Numbers/mm^2"}, {"measurement": "Diameter of lumen (trachea)", "setting": "NH4OH exposured mice [4]; NH4OH exposured mice", "result": "860.11 ± 100.75^ac μm"}, {"measurement": "Thickness Epithelium (trachea)", "setting": "NH4OH exposured mice [4]; NH4OH exposured mice", "result": "24.21 ± 4.36^hi μm"}, {"measurement": "Thickness Submucosa (trachea)", "setting": "NH4OH exposured mice [4]; NH4OH exposured mice", "result": "47.31 ± 11.39^hi μm"}, {"measurement": "Thickness Total wall (trachea)", "setting": "NH4OH exposured mice [4]; NH4OH exposured mice", "result": "191.23 ± 10.24^hi μm"}, {"measurement": "Alveolar surface area", "setting": "NH4OH exposured mice [4]; NH4OH exposured mice, lung", "result": "51.13 ± 5.95^ac %"}, {"measurement": "Septum thickness", "setting": "NH4OH exposured mice [4]; NH4OH exposured mice, lung", "result": "30.53 ± 10.06^gh μm"}, {"measurement": "inflammatory cells (alveolar septum)", "setting": "NH4OH exposured mice [4]; NH4OH exposured mice, lung", "result": "492.00 ± 114.18^gh numbers/mm^2"}, {"measurement": "Mean ASA, change", "setting": "NH4OH exposured mice [4]; [5]", "result": 65.26, "unit": "%"}, {"measurement": "Mean diameters of trachea lumen, change", "setting": "NH4OH exposured mice [4]; [5]", "result": 30.60, "unit": "%"}, {"measurement": "Mean numbers of infiltrated inflammatory cells on the alveolar septum, change", "setting": "NH4OH exposured mice [4]; [5]", "result": "−73.92", "unit": "%"}, {"measurement": "Mean numbers of infiltrated inflammatory cells on the trachea, change", "setting": "NH4OH exposured mice [4]; [5]", "result": "−62.74", "unit": "%"}, {"measurement": "Mean numbers of infiltrated mast cells on the trachea, change", "setting": "NH4OH exposured mice [4]; [5]", "result": "−63.05", "unit": "%"}, {"measurement": "Mean thicknesses of alveolar septum, change", "setting": "NH4OH exposured mice [4]; [5]", "result": "−57.84", "unit": "%"}, {"measurement": "Mean thicknesses of trachea epithelium, change", "setting": "NH4OH exposured mice [4]; [5]", "result": "−35.48", "unit": "%"}, {"measurement": "Mean thicknesses of trachea submucosa, change", "setting": "NH4OH exposured mice [4]; [5]", "result": "−47.27", "unit": "%"}, {"measurement": "Mean thicknesses of trachea wall, change", "setting": "NH4OH exposured mice [4]; [5]", "result": "−13.23", "unit": "%"}]}]}
